# Measurements published in article PMC4700268 (Frontiers in Pharmacology, 2016).
# Values joined by “and” are separate entries in the source; they are usually repeats but may differ in a detail not shown here. Identical values can stand only once. Like-named read-outs stand apart in the source and are kept apart here.
# Experiments:
# hOAT1 [1] = target: T1, hOAT1 (Homo sapiens, UniProt Q4U2R8); assay: Inhibition by ETV of [3H]adefovir, [3H]tenofovir, [3H]cidofovir accumulation in hOAT1 transfected HeLa cells; format: in vitro ADME; parameters: host or cells: HeLa cells, transient transfection; conditions: 2 min
# T1 sequence (Q4U2R8 1-563): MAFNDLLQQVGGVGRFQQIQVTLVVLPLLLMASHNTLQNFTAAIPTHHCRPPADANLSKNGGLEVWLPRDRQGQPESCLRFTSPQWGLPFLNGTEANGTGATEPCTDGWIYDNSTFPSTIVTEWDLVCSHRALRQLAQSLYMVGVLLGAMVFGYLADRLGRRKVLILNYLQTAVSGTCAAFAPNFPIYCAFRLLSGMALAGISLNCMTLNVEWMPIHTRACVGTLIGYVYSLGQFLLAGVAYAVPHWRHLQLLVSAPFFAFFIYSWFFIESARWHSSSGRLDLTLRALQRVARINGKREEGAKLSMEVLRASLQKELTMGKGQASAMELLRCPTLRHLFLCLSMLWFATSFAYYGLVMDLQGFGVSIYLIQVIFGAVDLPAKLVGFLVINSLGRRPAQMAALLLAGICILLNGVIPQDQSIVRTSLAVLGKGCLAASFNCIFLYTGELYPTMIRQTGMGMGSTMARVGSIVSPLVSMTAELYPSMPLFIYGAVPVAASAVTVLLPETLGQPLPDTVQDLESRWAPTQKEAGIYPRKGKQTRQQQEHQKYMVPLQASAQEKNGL
# Method: Inhibitory transport assays were carried out in 24-well plates as described previously ([Mandikova et al., 2013]). Transport assays in HeLa cells transiently transfected with the hOAT1 expression construct were performed 48 h after transfection. Transport assays in MDCK II cells transiently transfected with hOCT2, hCNT2 or hCNT3 were performed 24 h after transfection. The cultivation medium was removed and the cells were washed with transport solution and preincubated for 10 min at 37°C. The standard radiolabeled substrate or tested radioactive antiviral substance dissolved in transport solution was added to the cells and incubated for 2 min. […] After the designated time period, the incubation was stopped by washing the cells twice with ice-cold solution containing 137 mM NaCl and 10 mM HEPES, pH 7.4. The cells were disintegrated with 0.1 mL of Triton X 0.5% in 100 mM NaOH for 1 h. […] IC50 values were calculated using non-linear regression analysis using GraphPad Prism software (version 6).
# [2] = test system: HeLa cells transiently transfected with hOAT1
# Method: The Hela cells were plated in a 96-well plate and transfected with hOAT1 as described above. […] The controls were prepared simultaneously. After 24 h of incubation, the reagent from the kit CellTiter 96 AQueous One Solution Cell Proliferation Assay (CellTiter 96, PROMEGA, USA) was added. After 1.5 h of incubation at 37°C the absorbance was recorded at 490 nm.
# [3] = ref Matthews, 2006, Yan et al.; cited from earlier work
# [4] = test system: MDCK II cells transiently transfected with hCNT3; assay: MTS cell viability assay in hCNT3 transfected MDCK II cells; format: cell-based, canine; conditions: 24 h, 250–1000 μM, hCNT3 vs empty vector MDCK II cells
# Method: The controls were prepared simultaneously.
# [5] = Urinary excretion of ETV and estimated concentration in final urine; format: in vivo; conditions: 1 mg dose, 24 h-urinary volume of 1 L
# hOAT1 [6] = target: T1, hOAT1; parameters: host or cells: HeLa cells, transient transfection; method as in Xu et al., 2013; conditions: ref Xu et al., 2013; read-out: Km for hOAT1, previously published; cited from earlier work
# hCNT2 = target: T2, hCNT2 (Homo sapiens, UniProt O43868); assay: [3H]ETV uptake in hCNT2 transfected cells; conditions: 5 min, 37°C
# T2 sequence (O43868 1-658): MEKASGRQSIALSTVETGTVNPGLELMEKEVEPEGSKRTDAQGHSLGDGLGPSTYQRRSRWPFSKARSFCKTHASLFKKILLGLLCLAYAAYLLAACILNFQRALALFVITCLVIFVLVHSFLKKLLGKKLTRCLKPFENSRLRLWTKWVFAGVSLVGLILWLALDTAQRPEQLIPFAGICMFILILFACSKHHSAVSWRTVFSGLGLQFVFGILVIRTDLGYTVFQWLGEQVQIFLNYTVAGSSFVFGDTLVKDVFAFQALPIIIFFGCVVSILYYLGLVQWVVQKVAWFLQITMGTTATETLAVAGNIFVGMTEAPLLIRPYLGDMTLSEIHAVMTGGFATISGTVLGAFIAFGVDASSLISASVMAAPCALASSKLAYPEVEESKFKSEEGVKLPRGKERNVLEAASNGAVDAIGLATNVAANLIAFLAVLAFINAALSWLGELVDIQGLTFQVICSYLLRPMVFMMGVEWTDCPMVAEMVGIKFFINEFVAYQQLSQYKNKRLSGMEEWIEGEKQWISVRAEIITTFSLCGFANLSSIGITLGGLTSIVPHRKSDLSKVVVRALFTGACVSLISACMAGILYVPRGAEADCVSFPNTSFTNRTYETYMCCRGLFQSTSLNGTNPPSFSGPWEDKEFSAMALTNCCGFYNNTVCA
compound,measurement,setting,value
"C=C1[C@H](CO)[C@@H](O)C[C@@H]1n1cnc2c(=O)[nH]c(N)nc21 [ETV, Entecavir]",IC50,"hOAT1 [1]; IC50, inhibition of [3H]cidofovir accumulation by hOAT1, [3H]cidofovir 70 μM",695 µM
same,IC50,"hOAT1 [1]; [3H]adefovir 0.1 μM, read-out: IC50, inhibition of [3H]adefovir accumulation by hOAT1",432 µM
same,IC50,"hOAT1 [1]; [3H]tenofovir 0.5 μM, read-out: IC50, inhibition of [3H]tenofovir accumulation by hOAT1",704 µM
same,Effect of hOAT1 expression on cytotoxicity (cell viability),[2],no significant effect on cell viability
same,Therapeutic concentrations in plasma following regular doses,[3],below 50 nM
same,Effect of hCNT3 expression on cytotoxicity,[4],did not prove any significant increase in cytotoxicity
same,Estimated concentration in the final urine,[5],approximately 700 μg/L and ~2.5 μM
same,Km,hOAT1 [6],250 µM
same,Vmax of [3H]ETV uptake by hCNT2,hCNT2,68.88 nmol/mg protein/5 min
